Laboratory results from PMC6532841 (PLoS Genetics, 2019).
pEC50: −log10 of the molar value.

Key:
Assay in all cases: cAMP inhibition assay (ALPHAScreen), transfected CHO-K1
Format in all cases: cell-based
human HCA2 = target: T1, human HCA2 (Homo sapiens, UniProt Q8TDS4); conditions: read-out: HCA3 / Basal cAMP (% of mock-transfected)
T1 construct: gene HCAR2; full-length, N-terminal HA and C-terminal FLAG tag, pcDps, transient in CHO-K1
Source text: cAMP inhibition assay (ALPHAScreen), transfected CHO-K1 on human HCA2

orangutan HCA2 = target: T2, orangutan HCA2 (Pongo abelii, UniProt A0A8I5YUU0)
T2 construct: gene HCAR2; full-length, HA/FLAG tags, CHO-K1
Source text: cAMP inhibition assay (ALPHAScreen), transfected CHO-K1 on orangutan HCA2

mouse HCA2 = target: T3, mouse HCA2 (Mus musculus, UniProt Q9EP66)
T3 construct: gene Hcar2; full-length, N-terminal HA and C-terminal FLAG tag, CHO-K1
Source text: cAMP inhibition assay (ALPHAScreen), transfected CHO-K1 on mouse HCA2

human HCA3 = target: T4, human HCA3 (Homo sapiens, UniProt P49019); conditions: read-out: EC50 (μM) (95% CI)
T4 construct: gene HCAR3; full-length, N-terminal HA and C-terminal FLAG tag, pcDps, transient in CHO-K1
Source text: cAMP inhibition assay (ALPHAScreen), transfected CHO-K1 on human HCA3

orangutan HCA3 = target: T5, orangutan HCA3 (Pongo pygmaeus, UniProt A0A4Y1JWR4); conditions: read-out: EC50 (μM) (95% CI)
T5 construct: gene HCAR3; full-length, HA/FLAG tags, CHO-K1
Source text: cAMP inhibition assay (ALPHAScreen), transfected CHO-K1 on orangutan HCA3

chimpanzee HCA3 = target: T6, chimpanzee HCA3 (Pan troglodytes, UniProt A0A2J8MD62); conditions: agonist; 2 μM forskolin; HBSS
T6 construct: gene HCAR3; full-length, HA/FLAG tags, CHO-K1
Source text: cAMP inhibition assay (ALPHAScreen), transfected CHO-K1 on chimpanzee HCA3

siamang HCA3 = target: T7, siamang HCA3 (Symphalangus syndactylus, UniProt Z9POU2MJD9); conditions: read-out: EC50 (μM) (95% CI)
T7 construct: full-length, HA/FLAG tags, CHO-K1
Source text: cAMP inhibition assay (ALPHAScreen), transfected CHO-K1 on siamang HCA3

gorilla HCA1 = target: T8, gorilla HCA1 (Gorilla gorilla, UniProt A0A2I2YNR0)
T8 construct: gene HCAR1; full-length, HA/FLAG tags, CHO-K1
Source text: cAMP inhibition assay (ALPHAScreen), transfected CHO-K1 on gorilla HCA1

chimpanzee HCA1 = target: T9, chimpanzee HCA1 (Pan troglodytes, UniProt A0A2I3T0E0)
T9 construct: gene HCAR1; full-length, HA/FLAG tags, CHO-K1
Source text: cAMP inhibition assay (ALPHAScreen), transfected CHO-K1 on chimpanzee HCA1

human HCA1 = target: T10, human HCA1 (Homo sapiens, UniProt Q9BXC0); conditions: read-out: HCA2 / Basal cAMP (% of mock-transfected)
T10 construct: gene HCAR1; full-length, N-terminal HA and C-terminal FLAG tag, pcDps, transient in CHO-K1
Source text: cAMP inhibition assay (ALPHAScreen), transfected CHO-K1 on human HCA1

mouse HCA1 = target: T11, mouse HCA1 (Mus musculus, UniProt Q8C131)
T11 construct: gene Hcar1; full-length, N-terminal HA and C-terminal FLAG tag, CHO-K1
T11 sequence (Q8C131 1-343): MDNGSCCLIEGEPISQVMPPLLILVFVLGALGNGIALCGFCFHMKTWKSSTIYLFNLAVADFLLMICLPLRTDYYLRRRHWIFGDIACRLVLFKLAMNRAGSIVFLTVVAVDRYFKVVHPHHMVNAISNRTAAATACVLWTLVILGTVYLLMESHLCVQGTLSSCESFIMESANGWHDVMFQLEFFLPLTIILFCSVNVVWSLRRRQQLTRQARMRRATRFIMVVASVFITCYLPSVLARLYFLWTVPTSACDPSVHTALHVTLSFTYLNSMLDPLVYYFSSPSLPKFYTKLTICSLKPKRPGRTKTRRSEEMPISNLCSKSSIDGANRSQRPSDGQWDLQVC
Source text: cAMP inhibition assay (ALPHAScreen), transfected CHO-K1 on mouse HCA1

T5 sequence (A0A4Y1JWR4 1-363): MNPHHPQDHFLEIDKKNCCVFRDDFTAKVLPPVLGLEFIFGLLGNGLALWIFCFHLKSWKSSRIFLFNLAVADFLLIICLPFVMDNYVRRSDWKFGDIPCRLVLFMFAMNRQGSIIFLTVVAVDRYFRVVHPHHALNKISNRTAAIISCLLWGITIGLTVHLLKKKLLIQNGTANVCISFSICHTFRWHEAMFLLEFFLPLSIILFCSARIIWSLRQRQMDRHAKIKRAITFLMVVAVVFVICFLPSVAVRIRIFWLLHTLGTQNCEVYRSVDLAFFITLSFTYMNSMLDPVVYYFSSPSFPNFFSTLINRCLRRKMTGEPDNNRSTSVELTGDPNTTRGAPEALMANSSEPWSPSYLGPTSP
T1 sequence (Q8TDS4 whole entry): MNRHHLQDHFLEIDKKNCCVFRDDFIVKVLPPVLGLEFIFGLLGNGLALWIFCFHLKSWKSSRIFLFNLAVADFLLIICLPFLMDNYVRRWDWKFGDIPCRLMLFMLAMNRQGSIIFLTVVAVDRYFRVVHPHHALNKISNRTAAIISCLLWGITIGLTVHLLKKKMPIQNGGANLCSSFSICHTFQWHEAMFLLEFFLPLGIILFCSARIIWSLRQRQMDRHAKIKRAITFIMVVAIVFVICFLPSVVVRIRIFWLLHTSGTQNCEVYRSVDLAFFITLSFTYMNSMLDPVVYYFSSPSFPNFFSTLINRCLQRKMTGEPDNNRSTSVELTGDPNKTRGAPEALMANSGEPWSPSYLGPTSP
T3 sequence (Q9EP66 whole entry): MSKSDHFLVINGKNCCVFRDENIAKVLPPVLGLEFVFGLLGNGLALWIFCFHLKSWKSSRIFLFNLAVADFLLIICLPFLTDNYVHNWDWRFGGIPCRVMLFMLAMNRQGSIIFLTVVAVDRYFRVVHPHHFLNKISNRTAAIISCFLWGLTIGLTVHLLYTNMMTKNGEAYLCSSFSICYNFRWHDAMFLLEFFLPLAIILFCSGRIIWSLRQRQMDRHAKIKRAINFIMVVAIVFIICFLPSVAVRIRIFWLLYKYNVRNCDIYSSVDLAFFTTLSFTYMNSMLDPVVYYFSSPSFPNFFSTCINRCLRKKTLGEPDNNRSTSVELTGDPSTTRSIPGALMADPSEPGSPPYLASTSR
T2 sequence (A0A8I5YUU0 1-363): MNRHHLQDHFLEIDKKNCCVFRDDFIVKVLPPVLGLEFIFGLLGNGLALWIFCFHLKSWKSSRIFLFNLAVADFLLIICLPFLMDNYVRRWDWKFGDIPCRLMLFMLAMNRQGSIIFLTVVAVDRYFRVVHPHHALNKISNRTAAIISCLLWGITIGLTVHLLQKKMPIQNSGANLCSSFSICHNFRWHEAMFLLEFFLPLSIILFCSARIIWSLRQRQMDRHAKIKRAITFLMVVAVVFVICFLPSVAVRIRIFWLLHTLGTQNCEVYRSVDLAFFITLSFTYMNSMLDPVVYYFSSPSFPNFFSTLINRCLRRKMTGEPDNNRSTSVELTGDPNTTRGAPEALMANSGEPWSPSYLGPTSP
T10 sequence (Q9BXC0 whole entry): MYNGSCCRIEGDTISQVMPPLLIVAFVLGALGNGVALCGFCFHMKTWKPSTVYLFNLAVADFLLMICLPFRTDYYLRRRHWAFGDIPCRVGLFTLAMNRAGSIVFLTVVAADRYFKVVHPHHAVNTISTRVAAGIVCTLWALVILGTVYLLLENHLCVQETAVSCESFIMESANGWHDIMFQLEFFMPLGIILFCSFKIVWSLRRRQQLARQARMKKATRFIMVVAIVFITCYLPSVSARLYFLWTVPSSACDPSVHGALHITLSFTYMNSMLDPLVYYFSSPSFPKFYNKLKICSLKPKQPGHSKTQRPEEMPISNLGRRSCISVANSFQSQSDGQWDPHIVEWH
T4 sequence (P49019 whole entry): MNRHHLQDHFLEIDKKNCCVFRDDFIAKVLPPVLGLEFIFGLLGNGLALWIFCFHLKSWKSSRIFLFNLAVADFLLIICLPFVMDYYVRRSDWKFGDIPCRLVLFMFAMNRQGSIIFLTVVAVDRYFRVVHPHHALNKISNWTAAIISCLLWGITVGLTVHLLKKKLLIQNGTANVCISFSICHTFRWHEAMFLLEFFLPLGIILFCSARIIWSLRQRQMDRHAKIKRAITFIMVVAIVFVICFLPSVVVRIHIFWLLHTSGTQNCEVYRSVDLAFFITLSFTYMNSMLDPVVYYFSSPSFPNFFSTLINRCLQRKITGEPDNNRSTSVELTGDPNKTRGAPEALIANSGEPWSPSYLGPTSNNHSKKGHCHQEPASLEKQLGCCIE
T8 sequence (A0A2I2YNR0 1-346): as the sequence (Q9BXC0 whole entry) above, with I23V, V131M, A141T, V148L counted along it
T9 sequence (A0A2I3T0E0 1-346): as the sequence (Q9BXC0 whole entry) above, with V131M, A141T, V148L, S249L counted along it

## C[C@@H](O)CC(=O)O [D-3HB]
Human HCA2
  pEC50: 3.28
Orangutan HCA2
  pEC50: 3.17
Mouse HCA2
  pEC50: 2.99

## O=C(O)[C@H](O)Cc1ccccc1 [D-PLA]
Human HCA3
  EC50: 0.15 µM
Orangutan HCA3
  EC50: 1.2 µM
Chimpanzee HCA3
  EC50 (μM) (95% CI): 0.13 (0.08–0. 22) μM
Siamang HCA3
  EC50: 0.28 µM

## C[C@H](O)C(=O)O [L-lactate]
Gorilla HCA1
  pEC50: 2.64
Chimpanzee HCA1
  pEC50: 2.39
Human HCA1
  pEC50: 2.62
Mouse HCA1
  pEC50: 2.54
